Source: patent US20220332726A1, “NITROXIDE DERIVATIVE OF ROCK KINASE INHIBITOR” (VIVAVISION (SHANGHAI) LTD, priority 2020, published 2022)

target: ROCK2 (Homo sapiens, UniProt O75116); assay: ROCK2 kinase inhibitor activity test (HTRF); assay type: biochemical; details: ROCK2 1 nM, substrate 500 nM, ATP 6 uM, 1.5 hours at room temperature, read-out: ROCK2 kinase inhibitor activities (IC50)
Method: ROCK2 Kinase Inhibitor Activity Test
1) 4× ROCK2 reaction solution, 4×ATP reaction solution, 4× substrate solution, and 4× compound solution were prepared according to experimental requirements.
2) 2.5 μL of 4× kinase solution and 2.5 μL of diluted 4× test compound solutions with different concentration gradients were added to a 384-well plate. 2 replicate wells were provided for each concentration, and an enzyme solution blank control group and a negative control group (DMSO group) were provided at the same time. Centrifugation was performed at 1000 rpm for 1 minute, and the enzyme and the compounds were mixed. 2.5 μL of 4× substrate solution was added to the 384-well plate, centrifugation was performed at 1000 rpm for 1 minute, 2.5 μL of 4× ATP solution was added to the 384-well plate, centrifugation was performed at 1000 rpm for 1 minute to start the enzyme reaction, and incubation was performed at room temperature for 1.5 hours.
The final concentration of each component of the ROCK2 reaction was: ROCK2: 1 nM, substrate: 500 nM, ATP: 6 uM, and the final concentration range of the test compounds was: 100 nM to 5 pM.
3) 4× Streptavidin-XL-665 detection solution was prepared according to experimental requirements.
4) After the enzyme reaction was completed, 5 ul of 4× Streptavidin-XL-665 detection solution was added to each well of the 384-well plate, and centrifugation was performed at 1000 rpm for 1 minute. 5 μL of 4×STK Antibody-cryptate detection antibody solution was added to each well of the 384-well plate, centrifugation was performed at 1000 rpm for 1 minute, and incubation was performed for 1 hour at room temperature.
5) After antibody incubation was completed, the signal value of each well was measured by the HTRF program on an Envision plate reader.
1) Taking the enzyme solution blank control group as 100% inhibition rate and the negative control group (DMSO group) as 0% inhibition rate, the percentage inhibition rate corresponding to each concentration of the test compound was calculated.
2) In the GraphPad Prism software, a nonlinear regression analysis was performed on the logarithm of the concentrations of the test compounds and the corresponding percentage inhibition rates to obtain the half-inhibitory concentrations (IC50) of the test compounds.
The ROCK2 kinase inhibitor activities (IC50) of the compounds detected by this method are as follows: […]

Chain of ROCK2 (O75116 whole entry): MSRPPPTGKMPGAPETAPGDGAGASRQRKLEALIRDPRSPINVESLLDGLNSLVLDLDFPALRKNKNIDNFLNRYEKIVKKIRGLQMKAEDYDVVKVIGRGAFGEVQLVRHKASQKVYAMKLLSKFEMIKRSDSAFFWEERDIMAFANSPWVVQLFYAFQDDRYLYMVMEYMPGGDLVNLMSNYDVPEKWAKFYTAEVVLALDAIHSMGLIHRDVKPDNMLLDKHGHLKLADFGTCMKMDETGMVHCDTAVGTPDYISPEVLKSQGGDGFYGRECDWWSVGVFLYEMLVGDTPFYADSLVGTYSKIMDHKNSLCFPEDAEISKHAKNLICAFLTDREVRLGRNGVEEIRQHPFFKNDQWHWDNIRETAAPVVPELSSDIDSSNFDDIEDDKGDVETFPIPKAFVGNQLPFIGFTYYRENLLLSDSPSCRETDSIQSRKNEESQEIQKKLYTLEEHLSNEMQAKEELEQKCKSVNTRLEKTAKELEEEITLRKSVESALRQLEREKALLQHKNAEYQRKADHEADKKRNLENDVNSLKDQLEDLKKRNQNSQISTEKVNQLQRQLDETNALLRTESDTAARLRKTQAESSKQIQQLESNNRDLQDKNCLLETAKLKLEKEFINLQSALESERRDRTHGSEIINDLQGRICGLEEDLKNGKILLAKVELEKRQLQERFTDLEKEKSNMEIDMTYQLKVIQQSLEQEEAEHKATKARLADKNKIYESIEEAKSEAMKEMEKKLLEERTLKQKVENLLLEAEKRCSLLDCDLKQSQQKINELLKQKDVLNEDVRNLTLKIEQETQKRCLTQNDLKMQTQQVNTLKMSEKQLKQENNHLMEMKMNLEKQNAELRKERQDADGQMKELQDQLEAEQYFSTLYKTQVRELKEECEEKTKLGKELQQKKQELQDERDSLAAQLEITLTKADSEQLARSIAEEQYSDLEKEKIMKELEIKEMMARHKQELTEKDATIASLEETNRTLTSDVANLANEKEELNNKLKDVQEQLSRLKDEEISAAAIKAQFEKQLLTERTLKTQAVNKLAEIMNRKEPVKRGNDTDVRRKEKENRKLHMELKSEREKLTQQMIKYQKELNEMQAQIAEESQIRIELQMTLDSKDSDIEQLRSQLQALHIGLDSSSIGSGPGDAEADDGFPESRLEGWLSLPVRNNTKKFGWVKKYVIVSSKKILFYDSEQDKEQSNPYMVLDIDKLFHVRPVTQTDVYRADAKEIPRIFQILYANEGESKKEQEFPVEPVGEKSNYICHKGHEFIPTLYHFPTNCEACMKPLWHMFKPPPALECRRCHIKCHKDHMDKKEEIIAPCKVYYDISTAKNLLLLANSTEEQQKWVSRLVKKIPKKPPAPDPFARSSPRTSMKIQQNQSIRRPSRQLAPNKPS

IC50 [nM] | Compound
19.3 | NCC(C(=O)Nc1cc2ccncc2s1)c1ccc(CCCCO[N+](=O)[O-])cc1 (centres unmarked) [Example 10, 4-(4-(3-amino-1-oxo-1-(thieno[2,3-c]pyridin-2-ylamino)prop-2-yl)phenyl)butyl nitrate]
1.63 | NC[C@@H](C(=O)Nc1cc2ccncc2s1)c1ccc(COC(=O)C2CCC(O[N+](=O)[O-])CC2)cc1 (stereo partly drawn) [Example 15, (S)-4-(3-amino-1-oxy-1-(thieno[2,3-c]pyridin-2-ylamino)prop-2-yl)benzyl 4-(nitrooxy)cyclohexane-1-carboxylic acid]
2.95 | NC[C@@H](C(=O)Nc1cc2c(F)cncc2s1)c1ccc(CO[N+](=O)[O-])cc1 [Example 12, (S)-4-(3-amino-1-((4-fluorothieno[2,3-c]pyridin-2-yl)amino)-1-oxoprop-2-yl)benzyl nitrate]
2.74 | NC[C@@H](C(=O)Nc1cc2ccncc2s1)c1ccc(COC(=O)CC2(CO[N+](=O)[O-])CC2)cc1 [Example 29, (S)-4-(3-amino-1-oxy-1-(thieno[2,3-c]pyridin-2-ylamino)prop-2-yl)benzyl 2-(1-((nitrooxy)methyl)cyclopropyl acetate]
1.78 | NC[C@@H](C(=O)Nc1ccc2cnsc2c1)c1ccc(CO[N+](=O)[O-])cc1 [Example 4, (S)-4-(3-amino-1-(benzo[d]isothiazol-6-ylamino)-1-oxoprop-2-yl)benzyl nitrate]
6.5 | NC[C@@H](C(=O)Nc1cc2ccncc2s1)c1ccc(COC(=O)[C@H]2C[C@H](CO[N+](=O)[O-])C2)cc1 [Example 35, (1R,3S)-4-((S)-3-amino-1-oxy-1-(thieno[2,3-c]pyridin-2-ylamino)propan-2-yl)benzyl 3-((nitrooxy)methyl)cyclobutane-1-carboxylate]
1.13 | NC[C@@H](C(=O)Nc1cc2ccncc2s1)c1ccc(COC(=O)C2CC(CO[N+](=O)[O-])C2)cc1 (stereo partly drawn) [Example 23, (S)-4-(3-amino-1-oxy-1-(thieno[2,3-c]pyridin-2-ylamino)propan-2-yl)benzyl 3-((nitrooxy)methyl)cyclobutane-1-carboxylate]
1.6 | NC[C@@H](C(=O)Nc1cc2ccncc2s1)c1ccc(COC(=O)c2ccc(CO[N+](=O)[O-])cc2)cc1 [Example 22, (S)-4-(3-amino-1-oxo-1-(thieno[2,3-c]pyridin-2-ylamino)prop-2-yl)benzyl 4-((nitrooxy)methyl)benzoate]
3.11 | NC[C@@H](C(=O)Nc1cc2ccncc2s1)c1ccc(COC(=O)C2(CO[N+](=O)[O-])CC2)cc1 [Example 32, (S)-4-(3-amino-1-oxy-1-(thieno[2,3-c]pyridin-2-ylamino)propan-2-yl)benzyl 1-((nitrooxy)methyl)cyclopropane carboxylate]
1.86 | NC[C@@H](C(=O)Nc1cc2ccncc2s1)c1ccc(COC(=O)c2ccc(CCO[N+](=O)[O-])cc2)cc1 [Example 16, (S)-4-(3-amino-1-oxy-1-(thieno[2,3-c]pyridin-2-ylamino)prop-2-yl)benzyl 4-(2-(nitrooxy)ethyl)benzoate]
1.04 | NC[C@@H](C(=O)Nc1cc2ccncc2s1)c1ccc(COC(=O)[C@H]2C[C@@H](CO[N+](=O)[O-])C2)cc1 [Example 34, (1S,3R)-4-((S)-3-amino-1-oxy-1-(thieno[2,3-c]pyridin-2-ylamino)propan-2-yl)benzyl 3-((nitrooxy)methyl)cyclobutane-1-carboxylate]
1.32 | NC[C@@H](C(=O)Nc1cc2ccncc2s1)c1ccc(COC(=O)c2cccc(CCO[N+](=O)[O-])c2)cc1 [Example 28, (S)-4-(3-amino-1-oxy-1-(thieno[2,3-c]pyridin-2-ylamino)prop-2-yl)benzyl 3-(2-(nitrooxy)ethyl)benzoate]
1.43 | NC[C@@H](C(=O)Nc1cc2ccncc2s1)c1ccc(COC(=O)[C@H]2CC[C@H](O[N+](=O)[O-])CC2)cc1 [Example 20, 4-((S)-3-amino-1-oxy-1-(thieno[2,3-c]pyridin-2-ylamino)prop-2-yl)benzyl(1r,4S)-4-(nitrooxy)cyclohexane-1-carboxylate]
19.7 | NC[C@@H](C(=O)Nc1cc2ccncc2s1)c1ccc(COC(=O)C2CCC(CO[N+](=O)[O-])CC2)cc1 (stereo partly drawn) [Example 38, (1r,4S)-4-((S)-3-amino-1-oxy-1-(thieno[2,3-c]pyridin-2-ylamino)propan-2-yl)benzyl 4-((nitrooxy)methyl)cyclohexanecarboxylic acid]
16.5 | CC(C)(CCCO[N+](=O)[O-])C(=O)OCc1ccc([C@@H](CN)C(=O)Nc2cc3ccncc3s2)cc1 [Example 30, (S)-4-(3-amino-1-oxy-1-(thieno[2,3-c]pyridin-2-ylamino)prop-2-yl)benzyl 2,2-dimethyl-5-(nitrooxy)valerate]
0.45 | NC[C@@H](C(=O)Nc1cc2ccncc2s1)c1ccc(COC(=O)NCCO[N+](=O)[O-])cc1 [Example 24, (S)-4-(3-amino-1-oxy-1-(thieno[2,3-c]pyridin-2-ylamino)prop-2-yl)benzyl(2-(nitrooxy)ethyl)carbamate]
29.2 | NC[C@@H](C(=O)Nc1cc2ccncc2s1)c1ccc(COC(=O)[C@@H]2CCCN2CCO[N+](=O)[O-])cc1 [Example 39]
1.78 | NC[C@@H](C(=O)Nc1cc2ccncc2s1)c1ccc(COC(=O)[C@H]2C[C@H](O[N+](=O)[O-])C2)cc1 [Example 25, 4-((S)-3-amino-1-oxo-1-(thieno[2,3-c]pyridin-2-ylamino)propan-2-yl)benzyl (1r,3S)-3-(nitrooxy)cyclobutane-1-carboxylate]
1.33 | NC[C@@H](C(=O)Nc1cc2ccncc2s1)c1ccc(COC(=O)[C@H]2CC[C@@H](O[N+](=O)[O-])CC2)cc1 [Example 19, 4-((S)-3-amino-1-oxy-1-(thieno[2,3-c]pyridin-2-ylamino)prop-2-yl)benzyl(1s,4R)-4-(nitrooxy)cyclohexane-1-carboxylate]
1.3 | NC[C@@H](C(=O)Nc1cc2ccncc2s1)c1ccc(COC(=O)C2CC(O[N+](=O)[O-])C2)cc1 (some centres unmarked) [Example 6]
5.44 | Cc1cc(CCO[N+](=O)[O-])ccc1C(=O)OCc1ccc([C@@H](CN)C(=O)Nc2cc3ccncc3s2)cc1 [Example 17]

Compound | IC50 [nM]
NCC(C(=O)Nc1cc2ccncc2s1)c1ccc(C(CO[N+](=O)[O-])O[N+](=O)[O-])cc1 (centres unmarked) [Example 5, 1-(4-(3-amino-1-oxo-1-(thieno[2,3-c]pyridin-2-ylamino)prop-2-yl)phenyl)ethane-1,2-dinitrate] | 19.2
NCC(C(=O)Nc1cc2ccncc2s1)c1ccc(OC(CO[N+](=O)[O-])CO[N+](=O)[O-])cc1 (centres unmarked) [Example 14, 2-(4-(3-amino-1-oxo-1-(thieno[2,3-c]pyridin-2-ylamino)propan-2-yl)phenoxy)propane-1,3-dinitrate] | 77.3
4-((S)-3-amino-1-oxy-1-(thieno[2,3-c]pyridin-2-ylamino)prop-2-yl)benzyl(1s,4R)-4-((nitrooxy)methyl)cyclohexane-1-carboxylic acid [Example 27] | 4.62
NC[C@@H](C(=O)Nc1cc2ccncc2s1)c1ccc(COC(=O)C2CC(CO[N+](=O)[O-])(CO[N+](=O)[O-])C2)cc1 [Example 36, (S)-4-(3-amino-1-oxy-1-(thieno[2,3-c]pyridin-2-ylamino)prop-2-yl)benzyl 3,3-bis((nitrooxy)methyl)cyclobutane-1-carboxylate] | 32.5
CC(CO[N+](=O)[O-])(CO[N+](=O)[O-])C(=O)OCc1ccc([C@@H](CN)C(=O)Nc2cc3ccncc3s2)cc1 [Example 26, (S)-4-(3-amino-1-oxo-1-(thieno[2,3-c]pyridin-2-ylamino)prop-2-yl)benzyl 2-methyl-3-(nitrooxy)-2-((nitrooxy)methyl)propionate] | 9.9
NC[C@@H](C(=O)Nc1cc2cnccc2s1)c1ccc(COC(=O)CC[C@H](CO[N+](=O)[O-])O[N+](=O)[O-])cc1 [Example 33, 4-((S)-3-amino-1-oxy-1-(thieno[2,3-c]pyridin-2-ylamino)prop-2-yl)benzyl(R)-4,5-bis(nitrooxy)valeric acid] | 1.18
NC[C@@H](C(=O)Nc1cc2ccncc2s1)c1ccc(COC(=O)C2C[C@@H](O[N+](=O)[O-])[C@H](O[N+](=O)[O-])C2)cc1 [Example 37, (3R,4R)-4-((S)-3-amino-1-oxy-1-(thieno[2,3-c]pyridin-2-ylamino)propan-2-yl)benzyl 3,4-bis(nitrooxy)cyclopentane carboxylate] | 1.43
CN(C)C[C@@H](C(=O)Nc1cc2ccncc2s1)c1ccc(COC(=O)C(C)(CO[N+](=O)[O-])CO[N+](=O)[O-])cc1 [Example 40, (S)-4-(3-(dimethylamino)-1-oxo-1-(thieno[2,3-c]pyridin-2-ylamino)propan-2-yl)benzyl 2-methyl-3-(nitrooxy)-2-((nitrooxy)methyl)propionate] | 2.05
